US20200138827A1, “SMALL MOLECULE MODULATORS OF HUMAN STING” (Curadev Pharma Limited, priority 2017, published 2020)
Where two headings read alike, the source gives them in different places.

Tests used:
hSTING(HAQ) = target: T1, hSTING(HAQ) (Homo sapiens, UniProt Q86WV6, G230A/H232R/R293Q/R71H); test: Luciferase reporter assay in HEK293T-hSTING-Luciferase cells, HAQ polymorph; assay type: cell-based; conditions: 20 hr stimulation, read-out: HAQ activity (EC50 range)
T1 construct: host or cells: HEK293T
Source text: (§1) • a) Stable STING expressing cells—Stable HEK293T STING-expressing cell lines were generated using plasmids purchased from Invivogen, Calif., USA, that contain STING cDNA cloned into the pUNO-1 vector under hEF1-HTLV promoter and containing the Blasticidin selection cassette. The plasmids hSTING(R232), hSTING(H232), hSTING(HAQ) were directly procured from Invivogen while hSTING (AQ) and hSTING (Q) were derived from hSTING(HAQ) and hSTING (R232) plasmids respectively by using a PCR based site directed mutagenesis method. These vectors were individually transfected into HEK293T cells using Lipofectamine (Invitrogen) and transfected cells were selected under Blasticidin selection. These transfected cells were further subjected to clonal selection using the limiting dilution method to obtain clonally pure populations of HEK cells transfected with each of the above mentioned human STING variants. Only those clones were selected in which ligand independent activation of STING was minimal. • b) Stable Luciferase reporter gene expressing cells—Stable HEK293T Luciferase reporter gene expressing cell lines were generated using pCDNA4 plasmids under an IRF-inducible promoter. This promoter is comprised of five tandem interferon-stimulated response elements (ISRE) fused to an ISG54 minimal promoter. This vector was transfected into HEK293T cells using Lipofectamine (Invitrogen) and transfected cells were selected under Zeocin selection. These transfected cells were further subjected to clonal selection using the limiting dilution method to obtain clonally pure populations of HEK cells transfected the Luciferase reporter construct. Only those clones were selected in which ligand independent induction of luciferase was minimal.
(§2) 5×10^5 clonally selected HEK293T-hSTING-Luciferase cells were seeded in 384-well plates in growth medium and stimulated with novel compounds. After 20 hr of stimulation supernatant were removed and secretary reporter gene activity were measured using the Quanti-Luc detection system (Invivogen) on a Spectramax i3X luminometer.
(§3) The 5 major polymorphisms of human STING are shown in FIG. 1, with their prevalence in human populations indicated.

WT/R232 STING protein = target: T2, WT/R232 STING protein (Homo sapiens, UniProt Q86WV6, H232R); test: Luciferase reporter assay in HEK293T-hSTING-Luciferase cells, WT/R232; assay type: cell-based; conditions: 20 hr stimulation, read-out: R232 Activity (EC50 range)
T2 construct: host or cells: HEK293T
Outline: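 Clonal HEK293T cells stably expressing human STING R232 plus an ISRE/ISG54-driven luciferase reporter, 5×10^5 per well, stimulated with compounds for 20 h. Secreted luciferase in supernatant measured by luminescence; […].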

hSTING(H232) = target: T3, hSTING(H232) (Homo sapiens, UniProt Q86WV6); test: Luciferase reporter assay in HEK293T-hSTING-Luciferase cells, H232 polymorph; assay type: cell-based; conditions: 20 hr stimulation, read-out: H232 activity (EC50 range)
T3 construct: host or cells: HEK293T
Source text: as §1, §2, §3

NF-κB pathway = test: Reporter gene expression assay in THP1-Dual cells, NFkB axis (secreted SEAP); assay type: cell-based, human; conditions: read-out: THP-NFKB activity (EC50 range)
Procedure: (§4) THP1-Dual™ cells (Invivogen) were derived from the human THP-1 monocyte cell line by stable integration of two inducible reporter constructs. As a result, THP1-Dual™ cells allow the simultaneous study of the NF-κB pathway, by monitoring the activity of secreted SEAP, and the IRF pathway, by assessing the activity of a secreted luciferase (Lucia). […] THP1-Dual™ cells were seeded in 384-well plates in growth medium and stimulated with novel compounds. After […] of stimulation supernatant were removed and reporter proteins were readily measured in the cell culture supernatant using QUANTI-Blue™ (Invivogen), a SEAP detection reagent, and QUANTI-Luc™ (Invivogen), a luciferase detection reagent on a Spectramax i3X luminometer.

IRF pathway = test: Reporter gene expression assay in THP1-Dual cells, IRF axis (secreted Lucia luciferase); assay type: cell-based, human; conditions: read-out: THP-IRF activity (EC50 range)
Procedure: as §4

T1 sequence (Q86WV6 whole entry R71H/G230A/H232R/R293Q): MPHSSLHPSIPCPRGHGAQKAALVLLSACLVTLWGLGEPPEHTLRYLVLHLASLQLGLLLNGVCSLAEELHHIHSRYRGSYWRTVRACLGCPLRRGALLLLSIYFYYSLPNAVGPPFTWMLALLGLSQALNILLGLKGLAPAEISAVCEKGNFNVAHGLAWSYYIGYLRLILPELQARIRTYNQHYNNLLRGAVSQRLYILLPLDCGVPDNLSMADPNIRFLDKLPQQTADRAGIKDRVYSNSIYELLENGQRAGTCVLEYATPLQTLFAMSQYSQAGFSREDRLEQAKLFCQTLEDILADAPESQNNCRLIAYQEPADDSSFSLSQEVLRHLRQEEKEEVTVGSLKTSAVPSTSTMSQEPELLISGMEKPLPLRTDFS
T2 sequence (Q86WV6 whole entry H232R): as the sequence (Q86WV6 whole entry R71H/G230A/H232R/R293Q) above, with H71R, A230G, Q293R counted along it
T3 sequence (Q86WV6 whole entry): as the sequence (Q86WV6 whole entry R71H/G230A/H232R/R293Q) above, with H71R, A230G, R232H, Q293R counted along it

EC50 (hSTING(HAQ)) [nM] | EC50 (WT/R232 STING protein) [nM] | EC50 (hSTING(H232)) [nM] | EC50 (NF-κB pathway; Homo sapiens, THP1-Dual) [nM] | EC50 (IRF pathway; Homo sapiens, THP1-Dual) [nM] | EC50 (NF-κB pathway) [nM] | EC50 (IRF pathway) [nM] | SMILES
1000 to 10000 | 1000 to 10000 | 1000 to 10000 | > 10000 | > 10000 | – | – | O=C(NCc1cc2ccccc2o1)c1cnc2c(c1)N(Cc1c(F)cccc1Cl)C(=O)CS2 [Example 197, N-(benzofuran-2-ylmethyl)-1-(2-chloro-6-fluorobenzyl)-2-oxo-2,3-dihydro-1H-pyrido[2,3-b][1,4]thiazine-7-carboxamide]
< 1000 | < 1000 | < 1000 | – | – | > 10000 | > 10000 | C[C@@H]1Oc2ccc(C(=O)NCc3c(F)cc(F)cc3F)cc2N(Cc2cc(F)cc(F)c2)C1=O [Example 243, (S)-4-(3,5-difluorobenzyl)-2-methyl-3-oxo-N-(2,4,6-trifluorobenzyl)-3,4-dihydro-2H-benzo[b][1,4] oxazine-6-carboxamide]
1000 to 10000 | < 1000 | 1000 to 10000 | – | – | 1000 to 10000 | 1000 to 10000 | Cc1ccc(CNC(=O)c2ccc3c(n2)N(Cc2cc(F)cc(F)c2)C(=O)C(C)S3)o1 (stereo not drawn) [Example 190, 4-(3,5-difluorobenzyl)-2-methyl-N-((5-methylfuran-2-yl)methyl)-3-oxo-3,4-dihydro-2H-pyrido[3,2-b-1,4]thiazine-6-carboxamide]
1000 to 10000 | < 1000 | 1000 to 10000 | 1000 to 10000 | 1000 to 10000 | – | – | Cc1cccc(CNC(=O)c2ccc3c(c2)N(Cc2cc(F)cc(F)c2)C(=O)C(C)S3)c1 (stereo not drawn) [Example 144, 4-(3,5-difluorobenzyl)-2-methyl-N-(3-methylbenzyl)-3-oxo-3,4-dihydro-2H-benzo[b-1,4]thiazine-6-carboxamide]
1000 to 10000 | 1000 to 10000 | 1000 to 10000 | > 10000 | > 10000 | – | – | O=C(NCc1ccco1)c1ccc2c(c1)N(Cc1cccc(F)c1F)C(=O)CS2 [Example 82, 4-(2,3-difluorobenzyl)-N-(furan-2-ylmethyl)-3-oxo-3,4-dihydro-2H-benzo[b-1,4]thiazine-6-carboxamide]
1000 to 10000 | < 1000 | < 1000 | > 10000 | > 10000 | – | – | O=C(NCc1c(F)cccc1F)c1ccc2c(c1)N(Cc1c(F)cccc1Cl)C(=O)CS2 [Example 31, 4-(2-chloro-6-fluorobenzyl)-N-(2,6-difluorobenzyl)-3-oxo-3,4-dihydro-2H-benzo[b-1,4]thiazine 6-carboxamide]
> 10000 | < 1000 | > 10000 | > 10000 | > 10000 | – | – | Cc1ccc(CNC(=O)c2ccc3c(c2)N(Cc2cc(F)cc(F)c2)C(=O)C(C)S3)o1 (stereo not drawn) [Example 152, 4-(3,5-difluorobenzyl)-2-methyl-N-((5-methylfuran-2-yl)methyl)-3-oxo-3,4-dihydro-2H-benzo[b][1,4] thiazine-6-carboxamide]
< 1000 | < 1000 | < 1000 | – | – | 1000 to 10000 | 1000 to 10000 | Cc1ccc(CNC(=O)c2ccc3c(n2)N(Cc2cc(F)cc(F)c2)C(=O)C(C)S3)o1 (stereo not drawn) [Example 198, 4-(3,5-difluorobenzyl)-2-methyl-N-((5-methylfuran-2-yl)methyl)-3-oxo-3,4-dihydro-2H-pyrido[3,2-b][1,4]thiazine-6-carboxamide]
< 1000 | < 1000 | < 1000 | – | – | 1000 to 10000 | 1000 to 10000 | CC1Sc2ccc(C(=O)NCc3c(F)cc(F)cc3F)cc2N(Cc2cc(F)cc(F)c2)C1=O (stereo not drawn) [Example 145, 4-(3,5-difluorobenzyl)-2-methyl-3-oxo-N-(2,4,6-trifluorobenzyl)-3,4-dihydro-2H-benzo[b-1,4]thiazine-6-carboxamide]
1000 to 10000 | < 1000 | 1000 to 10000 | 1000 to 10000 | > 10000 | – | – | Cc1ccc(CNC(=O)c2cnc3c(c2)N(Cc2c(F)cccc2Cl)C(=O)C(C)S3)o1 (stereo not drawn) [Example 195, 1-(2-chloro-6-fluorobenzyl)-3-methyl-N-((5-methylfuran-2-yl)methyl)-2-oxo-2,3-dihydro-1H-pyrido[2,3-b][1,4]thiazine-7-carboxamide]
< 1000 | < 1000 | < 1000 | 1000 to 10000 | 1000 to 10000 | – | – | CC1Cc2ccc(C(=O)NCc3c(F)cc(F)cc3F)cc2N(Cc2c(F)cccc2Cl)C1=O (stereo not drawn) [Example 267, 1-(2-Chloro-6-fluorobenzyl)-3-methyl-2-oxo-N-(2,4,6-trifluorobenzyl)-1,2,3,4-tetrahydroquinoline-7-carboxamide]
1000 to 10000 | < 1000 | > 10000 | – | – | > 10000 | > 10000 | C[C@H]1Oc2ccc(C(=O)NCc3c(F)cc(F)cc3F)cc2N(Cc2cc(F)cc(F)c2)C1=O [Example 242, (R)-4-(3,5-difluorobenzyl)-2-methyl-3-oxo-N-(2,4,6-trifluorobenzyl)-3,4-dihydro-2H-benzo[b][1,4] oxazine-6-carboxamide]
< 1000 | < 1000 | < 1000 | – | – | < 1000 | 1000 to 10000 | CC1Sc2ccc(C(=O)NCc3c(F)cc(F)cc3F)cc2N(Cc2cc(F)cc(F)c2)C1=O (stereo not drawn) [Example 148, 4-(3,5-difluorobenzyl)-2-methyl-3-oxo-N-(2,4,6-trifluorobenzyl)-3,4-dihydro-2H-benzo[b][1,4] thiazine-6-carboxamide]
1000 to 10000 | < 1000 | 1000 to 10000 | 1000 to 10000 | 1000 to 10000 | – | – | CC1(CO)Sc2ccc(C(=O)NCc3ccc(F)cc3F)cc2N(Cc2c(F)cccc2Cl)C1=O (stereo not drawn) [Example 151, 4-(2-chloro-6-fluorobenzyl)-N-(2,4-difluorobenzyl)-2-(hydroxymethyl)-2-methyl-3-oxo-3,4-dihydro-2H-benzo[b][1,4] thiazine-6-carboxamide]
> 10000 | < 1000 | 1000 to 10000 | > 10000 | > 10000 | – | – | Cc1cccc(CNC(=O)c2ccc3c(c2)N(Cc2c(F)cccc2Cl)C(=O)CS3)c1 [Example 37, 4-(2-chloro-6-fluorobenzyl)-N-(3-methylbenzyl)-3-oxo-3,4-dihydro-2H-benzo[b-1,4]thiazine-6-carboxamide]
> 10000 | 1000 to 10000 | > 10000 | > 10000 | > 10000 | – | – | O=C(NCc1c(F)cc(F)cc1F)c1ccc2c(c1)N(C(=O)c1c(F)cccc1Cl)CCS2 [Example 258, 4-(2-chloro-6-fluorobenzoyl)-N-(2,4,6-trifluorobenzyl)-3,4-dihydro-2H-benzo[b][1,4]thiazine-6-carboxamide]
< 1000 | < 1000 | 1000 to 10000 | 1000 to 10000 | 1000 to 10000 | – | – | CC1(C)Sc2ccc(C(=O)NCc3cc4ccccc4o3)cc2N(Cc2c(F)cccc2Cl)C1=O [Example 154, N-(benzofuran-2-ylmethyl)-4-(2-chloro-6-fluorobenzyl)-2,2-dimethyl-3-oxo-3,4-dihydro-2H-benzo[b][1,4] thiazine-6-carboxamide]
< 1000 | < 1000 | 1000 to 10000 | 1000 to 10000 | 1000 to 10000 | – | – | Cc1cccc(CNC(=O)c2ccc3c(c2)N(Cc2ccccc2F)C(=O)C(C)S3)c1 (stereo not drawn) [Example 141, 4-(2-fluorobenzyl)-2-methyl-N-(3-methylbenzyl)-3-oxo-3,4-dihydro-2H-benzo[b-1,4]thiazine-6-carboxamide]
